According to US11559530B2, “Oral testosterone undecanoate therapy” (Lipocine Inc., priority 2016, dated 2023):

Assay: Clinical study of oral TU testosterone therapy in hypogonadal males: serum testosterone Cavg and Cmax responder analysis
Assay type: in vivo, human
Settings: for Cavg >300 ng/dL ≥75% patients / Cavg >300 ng/dL ≥80% patients / Cmax > 1500 ng/dL <15% patients / Cmax > 1500 ng/dL <20% patients / Cmax > 1800 ng/dL <5% patients / Cmax > 1800 ng/dL <10% patients / Cmax > 2500 ng/dL <2% patients / Cmax > 2500 ng/dL none of patients: with food
Protocol: The dosage form from Example B of Composition 4 with dosing regimen (Regimen #9-16) of dosing category BID-equal dose with daily dose range 150-600 mg were used for a Clinic Study of Testosterone Therapy for hypogonadal males.
The clinical study was a randomized double-blind, placebo-controlled dose escalating study of the safety, efficacy, tolerability, and pharmacokinetics of testosterone therapy in hypogonadal males. This clinic study was a single and multiple, ascending-dose study that was designed to determine the optimal starting, titration (if appropriate), or single fixed dose for safety and efficacy targeted by the US FDA. The study also verified the time for testosterone levels to reach steady state and identified a suitable fixed dose dosing regimen that satisfies an unmet need for safety and efficacy for oral TT.
This study was carried out with conditions of a single-center, randomized, double-blind, placebo-controlled, ascending multiple-dose, and serial-group in adult hypogonadal male subjects. The objectives of this study were: • a) To assess the safety, efficacy, and tolerability of escalating single and multiple oral doses of TU dosage forms in hypogonadal males • b) To determine the pharmacokinetics (PK) of testosterone (T), DHT, TU, DHTU, and estradiol (E2) after single and multiple oral doses of TU dosage forms in hypogonadal males • C) To identify a fixed dose dosing regimen satisfying US FDA targets, without needing to titrate, for restoring serum T levels in hypogonadal males to the normal T range.
The dosing regimen for this clinical study ranged from 150 mg daily dose (75 mg BID dose) to 600 mg daily dose (300 mg BID dose). Observed pharmacokinetic parameters (T, DHT, TU, DHTU, and E2) after single and multiple oral doses of TU dosage forms in the patients were recorded in connection with each daily dose listed in the report.
The overall analyzed results of this clinical study were plotted according to % of patients for safety (Cmax<1,500 ng/dL) and efficacy (Cavg>300 ng/dL) with a variety of dosing regimens. Note that only doses that were multiples of 75 mg were tested in the clinical study, the results predicted for the other doses are estimated from these values.

[1] = Regimen #1, TID-equal dose, TU 75/75/75 mg
[2] = Regimen #2, TID-equal dose, TU 112/112/112 mg
[3] = Regimen #3, TID-equal dose, TU 125/125/125 mg
[4] = Regimen #4, TID-equal dose, TU 150/150/150 mg
[5] = Regimen #5, TID-equal dose, TU 188/188/188 mg
[6] = Regimen #6, TID-equal dose, TU 225/225/225 mg
[7] = Regimen #7, TID-equal dose, TU 237/237/237 mg
[8] = Regimen #8, TID-equal dose, TU 250/250/250 mg
[9] = Regimen #9, BID-equal dose (AM/PM), TU 75/75 mg
[10] = Regimen #10, BID-equal dose (AM/PM), TU 150/150 mg
[11] = Regimen #11, BID-equal dose (AM/PM), TU 215/215 mg
[12] = Regimen #12, BID-equal dose (AM/PM), TU 225/225 mg
[13] = Regimen #13, BID-equal dose (AM/PM), TU 237/237 mg
[14] = Regimen #14, BID-equal dose (AM/PM), TU 250/250 mg
[15] = Regimen #15, BID-equal dose (AM/PM), TU 265/265 mg
[16] = Regimen #16, BID-equal dose (AM/PM), TU 300/300 mg
[17] = Regimen #17, BID-different dose (AM/PM), TU 75/225 mg
[18] = Regimen #18, BID-different dose (AM/PM), TU 75/300 mg
[19] = Regimen #19, BID-different dose (AM/PM), TU 150/225 mg
[20] = Regimen #20, BID-different dose (AM/PM), TU 225/150 mg
[21] = Regimen #21, BID-different dose (AM/PM), TU 225/300 mg
[22] = Regimen #22, BID-different dose (AM/PM), TU 300/75 mg
[23] = Regimen #23, BID-different dose (AM/PM), TU 300/150 mg
[24] = Regimen #24, BID-different dose (AM/PM), TU 300/225 mg

CCCCCCCCCCC(=O)O[C@H]1CC[C@H]2[C@@H]3CCC4=CC(=O)CC[C@]4(C)[C@H]3CC[C@]12C [TU, testosterone undecanoate]
Cavg >300 ng/dL ≥75% patients [1]: No | Cavg >300 ng/dL ≥80% patients [1]: No | Cavg >300 ng/dL ≥75% patients [2]: No | Cavg >300 ng/dL ≥80% patients [2]: No | Cavg >300 ng/dL ≥75% patients [3]: No | Cavg >300 ng/dL ≥80% patients [3]: No | Cavg >300 ng/dL ≥75% patients [4]: Yes | Cavg >300 ng/dL ≥80% patients [4]: Yes | Cavg >300 ng/dL ≥75% patients [5]: Yes | Cavg >300 ng/dL ≥80% patients [5]: Yes | Cavg >300 ng/dL ≥75% patients [6]: Yes | Cavg >300 ng/dL ≥80% patients [6]: Yes | Cmax > 1500 ng/dL <15% patients [6]: No | Cmax > 1500 ng/dL <20% patients [6]: Yes | Cmax > 1800 ng/dL <5% patients [6]: No | Cmax > 1800 ng/dL <10% patients [6]: Yes | Cmax > 2500 ng/dL <2% patients [6]: Yes | Cmax > 2500 ng/dL none of patients [6]: No | Cavg >300 ng/dL ≥75% patients [7]: Yes | Cavg >300 ng/dL ≥80% patients [7]: Yes | Cmax > 1500 ng/dL <15% patients [7]: No | Cmax > 1500 ng/dL <20% patients [7]: Yes | Cmax > 1800 ng/dL <5% patients [7]: No | Cmax > 1800 ng/dL <10% patients [7]: Yes | Cmax > 2500 ng/dL <2% patients [7]: No | Cmax > 2500 ng/dL none of patients [7]: No | Cavg >300 ng/dL ≥75% patients [8]: Yes | Cavg >300 ng/dL ≥80% patients [8]: Yes | Cmax > 1500 ng/dL <15% patients [8]: No | Cmax > 1500 ng/dL <20% patients [8]: No | Cmax > 1800 ng/dL <5% patients [8]: No | Cmax > 1800 ng/dL <10% patients [8]: No | Cmax > 2500 ng/dL <2% patients [8]: No | Cmax > 2500 ng/dL none of patients [8]: No | Cavg >300 ng/dL ≥75% patients [9]: No | Cavg >300 ng/dL ≥80% patients [9]: No | Cmax > 1500 ng/dL <15% patients [9]: Yes | Cmax > 1500 ng/dL <20% patients [9]: Yes | Cmax > 1800 ng/dL <5% patients [9]: Yes | Cmax > 1800 ng/dL <10% patients [9]: Yes | Cmax > 2500 ng/dL <2% patients [9]: Yes | Cmax > 2500 ng/dL none of patients [9]: Yes | Cavg >300 ng/dL ≥75% patients [10]: No | Cavg >300 ng/dL ≥80% patients [10]: No | Cmax > 1500 ng/dL <15% patients [10]: Yes | Cmax > 1500 ng/dL <20% patients [10]: Yes | Cmax > 1800 ng/dL <5% patients [10]: Yes | Cmax > 1800 ng/dL <10% patients [10]: Yes | Cmax > 2500 ng/dL <2% patients [10]: Yes | Cmax > 2500 ng/dL none of patients [10]: Yes | Cavg >300 ng/dL ≥75% patients [11]: Yes | Cavg >300 ng/dL ≥80% patients [11]: No | Cmax > 1500 ng/dL <15% patients [11]: Yes | Cmax > 1500 ng/dL <20% patients [11]: Yes | Cmax > 1800 ng/dL <5% patients [11]: Yes | Cmax > 1800 ng/dL <10% patients [11]: Yes | Cmax > 2500 ng/dL <2% patients [11]: Yes | Cmax > 2500 ng/dL none of patients [11]: Yes | Cavg >300 ng/dL ≥75% patients [12]: Yes | Cavg >300 ng/dL ≥80% patients [12]: Yes | Cmax > 1500 ng/dL <15% patients [12]: Yes | Cmax > 1500 ng/dL <20% patients [12]: Yes | Cmax > 1800 ng/dL <5% patients [12]: Yes | Cmax > 1800 ng/dL <10% patients [12]: Yes | Cmax > 2500 ng/dL <2% patients [12]: Yes | Cmax > 2500 ng/dL none of patients [12]: Yes | Cavg >300 ng/dL ≥75% patients [13]: Yes | Cavg >300 ng/dL ≥80% patients [13]: Yes | Cmax > 1500 ng/dL <15% patients [13]: Yes | Cmax > 1500 ng/dL <20% patients [13]: Yes | Cmax > 1800 ng/dL <5% patients [13]: Yes | Cmax > 1800 ng/dL <10% patients [13]: Yes | Cmax > 2500 ng/dL <2% patients [13]: Yes | Cmax > 2500 ng/dL none of patients [13]: Yes | Cavg >300 ng/dL ≥75% patients [14]: Yes | Cavg >300 ng/dL ≥80% patients [14]: Yes | Cmax > 1500 ng/dL <15% patients [14]: No | Cmax > 1500 ng/dL <20% patients [14]: Yes | Cmax > 1800 ng/dL <5% patients [14]: Yes | Cmax > 1800 ng/dL <10% patients [14]: Yes | Cmax > 2500 ng/dL <2% patients [14]: Yes | Cmax > 2500 ng/dL none of patients [14]: Yes | Cavg >300 ng/dL ≥75% patients [15]: Yes | Cavg >300 ng/dL ≥80% patients [15]: Yes | Cmax > 1500 ng/dL <15% patients [15]: No | Cmax > 1500 ng/dL <20% patients [15]: Yes | Cmax > 1800 ng/dL <5% patients [15]: No | Cmax > 1800 ng/dL <10% patients [15]: Yes | Cmax > 2500 ng/dL <2% patients [15]: Yes | Cmax > 2500 ng/dL none of patients [15]: No | Cavg >300 ng/dL ≥75% patients [16]: Yes | Cavg >300 ng/dL ≥80% patients [16]: Yes | Cmax > 1500 ng/dL <15% patients [16]: No | Cmax > 1500 ng/dL <20% patients [16]: No | Cmax > 1800 ng/dL <5% patients [16]: No | Cmax > 1800 ng/dL <10% patients [16]: Yes | Cmax > 2500 ng/dL <2% patients [16]: Yes | Cmax > 2500 ng/dL none of patients [16]: No | Cavg >300 ng/dL ≥75% patients [17]: No | Cavg >300 ng/dL ≥80% patients [17]: No | Cmax > 1500 ng/dL <15% patients [17]: Yes | Cmax > 1500 ng/dL <20% patients [17]: Yes | Cmax > 1800 ng/dL <5% patients [17]: Yes | Cmax > 1800 ng/dL <10% patients [17]: Yes | Cmax > 2500 ng/dL <2% patients [17]: Yes | Cmax > 2500 ng/dL none of patients [17]: Yes | Cavg >300 ng/dL ≥75% patients [18]: No | Cavg >300 ng/dL ≥80% patients [18]: No | Cmax > 1500 ng/dL <15% patients [18]: Yes | Cmax > 1500 ng/dL <20% patients [18]: Yes | Cmax > 1800 ng/dL <5% patients [18]: No | Cmax > 1800 ng/dL <10% patients [18]: Yes | Cmax > 2500 ng/dL <2% patients [18]: Yes | Cmax > 2500 ng/dL none of patients [18]: No | Cavg >300 ng/dL ≥75% patients [19]: No | Cavg >300 ng/dL ≥80% patients [19]: No | Cmax > 1500 ng/dL <15% patients [19]: Yes | Cmax > 1500 ng/dL <20% patients [19]: Yes | Cmax > 1800 ng/dL <5% patients [19]: Yes | Cmax > 1800 ng/dL <10% patients [19]: Yes | Cmax > 2500 ng/dL <2% patients [19]: Yes | Cmax > 2500 ng/dL none of patients [19]: Yes | Cavg >300 ng/dL ≥75% patients [20]: Yes | Cavg >300 ng/dL ≥80% patients [20]: No | Cmax > 1500 ng/dL <15% patients [20]: Yes | Cmax > 1500 ng/dL <20% patients [20]: Yes | Cmax > 1800 ng/dL <5% patients [20]: Yes | Cmax > 1800 ng/dL <10% patients [20]: Yes | Cmax > 2500 ng/dL <2% patients [20]: Yes | Cmax > 2500 ng/dL none of patients [20]: Yes | Cavg >300 ng/dL ≥75% patients [21]: Yes | Cavg >300 ng/dL ≥80% patients [21]: Yes | Cmax > 1500 ng/dL <15% patients [21]: No | Cmax > 1500 ng/dL <20% patients [21]: No | Cmax > 1800 ng/dL <5% patients [21]: No | Cmax > 1800 ng/dL <10% patients [21]: Yes | Cmax > 2500 ng/dL <2% patients [21]: Yes | Cmax > 2500 ng/dL none of patients [21]: No | Cavg >300 ng/dL ≥75% patients [22]: No | Cavg >300 ng/dL ≥80% patients [22]: No | Cmax > 1500 ng/dL <15% patients [22]: No | Cmax > 1500 ng/dL <20% patients [22]: Yes | Cmax > 1800 ng/dL <5% patients [22]: No | Cmax > 1800 ng/dL <10% patients [22]: Yes | Cavg >300 ng/dL ≥75% patients [23]: Yes | Cavg >300 ng/dL ≥80% patients [23]: Yes | Cavg >300 ng/dL ≥75% patients [24]: Yes | Cavg >300 ng/dL ≥80% patients [24]: Yes | US FDA T level targets for safety and efficacy (fixed dose, 430 mg TU daily (215 mg BID-equal) to 480 mg TU daily (240 mg BID-equal)): can satisfy US FDA T level targets for safety and efficacy without titration
